Laboratory results published in patent EP0079489A1, “Methotrexate-labeled iodothyronine conjugates and method, reagent means and test device for the determination of iodothyronine in or iodothyronine uptake of a liquid sample” (MILES LABORATORIES, INC., priority 1981, dated 1983).

How the values were obtained:
[1] = test system: Rabbit antibody to thyroxine; test: Titration of antibody to thyroxine with the labeled conjugate, thiazoyl blue colorimetric read-out (Example 2B); format: binding; settings: 40 µl Reagent 5 (conjugate), 10 minutes
Procedure: Thyroxine-free serum was prepared by treatment of pooled human serum with charcoal [Larsen et al, J. Clin. Endocrinol. Metab. 37:177(1973)]. All reagents except thyroxine-free serum or as otherwise indicated below were prepared in 0.1 M sodium phosphate buffer, pH 6.5, containing 0.3 M potassium chloride and 0.005% sodium azide. • Reagent 1 - Mixture of 6.5 ml of 10 mM 8-anilinonaphthalene sulfonic acid and 10 ml of thyroxine-free serum. • Reagent 2 - Mixture of 1.0 ml of bovine liver dihydrofolate reductase (0.152 units/ml) and 1.0 ml of 11 mM thiazoyl blue. • Reagent 3 - 0.114 mM dihydrofolate in 0.085 M sodium phosphate buffer, pH 6.2, 0.255 mM potassium chloride, and 0.043% sodium azide. • Reagent 4 - Rabbit antibody to thyroxine diluted 10-fold in buffer. • Reagent 5 - […] methotrexate-thyroxine conjugate (Part A above) in 10 mM sodium carbonate buffer, pH 9.5. • Reagent 6 - 10 mM NADPH in 10 mM sodium carbonate buffer, pH 9.5.
Various amounts of Reagent 4 (indicated in Table 4 below) were mixed with 40 µl of Reagent 5, 90 µl of Reagent 6, and sufficient buffer to make a final volume of 625 pl. Then 175 µl of Reagent 1 was added to each followed by 250 µl of buffer and the incubation was continued. After 10 minutes from the addition of Reagent 3, the absorbance at 560 nm was recorded for each reaction mixture and shown in Table 4.

[2] = target: T1, bovine liver dihydrofolate reductase (Bos taurus, UniProt P00376); test: Inhibition of dihydrofolate reductase by the labeled conjugate (Example 1C); format: biochemical; settings: for ΔA340/20 Min: 37°C, without conjugate 0.645
T1 construct: bovine liver dihydrofolate reductase (Sigma Chemical Co., St. Louis, MO); purchased Sigma Chemical Co., St. Louis, MO; host or cells: bovine liver
T1 sequence (P00376 1-187): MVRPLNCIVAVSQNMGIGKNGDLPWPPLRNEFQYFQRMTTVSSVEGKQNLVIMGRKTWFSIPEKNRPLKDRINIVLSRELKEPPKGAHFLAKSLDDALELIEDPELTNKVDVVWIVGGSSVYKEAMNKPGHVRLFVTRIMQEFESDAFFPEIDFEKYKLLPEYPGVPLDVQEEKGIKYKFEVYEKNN
Procedure: (§1) The standard assay consisted of 0.10 mM dihydrofolate (DHF), 0.10 mM NADPH, 0.001 unit/bovine liver dihydrofolate reductase (Sigma Chemical Co., St. Louis, MO) and 0.1 M sodium phosphate (pH 6.0) in a final volume of 2.0 ml. The reaction mixture without dihydrofolate was incubated at 37°C for 5 minutes, then the reaction was initiated by adding dihydrofolate, and an initial absorbance at 340 nm was recorded with a Gilford 250 spectrophotometer (Gilford Instrument Laboratories, Oberlin, OH). The reaction was allowed to proceed for 20 minutes at 37°C and then a final reading was recorded. The enzyme activity was expressed as the change in absorbance (AA) at 340 nanometers (nm) that occurred during the 20 minute (min) reaction.
Various concentrations of methotrexate-aminobutylthroxine conjugate were incubated with the standard concentrations of NADPH, dihydrofolate reductase and buffer for 5 minutes at 37°C. The reaction was initiated as discussed above with the addition of dihydrofolate.

Antibody to Thyroxine [3] = test: Titration of antibody to thyroxine with the labeled conjugate, dihydrofolate reductase activity read-out (Example 1D); format: binding; settings: 75 µl of 0.16 µM conjugate (6 nM)
Procedure: as §1
Various concentrations of antibody to thyroxine and the standard concentrations of NADPH, 6 nM methotrexate-aminobutylthyroxine and buffers were incubated for 2 minutes at room temperature. Dihydrofolate reductase was then added, and the incubation was continued for 5 minutes at 37°C. The enzyme catalyzed reaction was initiated by addition of dihydrofolate and monitored as described above.

Antibody to Thyroxine [4] = test: Competitive binding assay for thyroxine, dihydrofolate reductase activity read-out (Example 1E); settings: 100 µl of 0.16 µM conjugate
Procedure: as §1
The standard concentrations of NADPH, buffer, antibody to thyroxine and various concentrations of thyroxine were incubated at room remperature for a minimum of 30 seconds. Then 100 µl of […] methotrexate-aminobutylthyroxine was added and the mixture was incubated at room temperature for 2 minutes. Following the second incubation, dihydrofolate reductase was added and the mixture was incubated an additional 5 minutes at 37°C. The reaction was initiated and monitored in the usual manner.

SMILES | Average Absorbance (560 nm) ([1]; 20 µl Reagent 4 (rabbit antibody diluted 10-fold)) | Average Absorbance (560 nm) ([1]; 40 µl Reagent 4 (rabbit antibody diluted 10-fold)) | Average Absorbance (560 nm) ([1]; 80 µl Reagent 4 (rabbit antibody diluted 10-fold)) | Average Absorbance (560 nm) ([1]; 160 µl Reagent 4 (rabbit antibody diluted 10-fold)) | Average Absorbance (560 nm) ([1]; 320 µl Reagent 4 (rabbit antibody diluted 10-fold)) | Average Absorbance (560 nm) ([1]; no antibody solution, thyroxine-free serum present) | ΔA340/20 Min ([2]; 25 μl of 0.16 μM conjugate in 2.0 ml final volume) | ΔA340/20 Min ([2]; 50 μl of 0.16 μM conjugate in 2.0 ml final volume) | ΔA340/20 Min ([2]; 100 μl of 0.16 μM conjugate in 2.0 ml final volume) | ΔA340/20 Min ([2]; 200 μl of 0.16 μM conjugate in 2.0 ml final volume) | inhibition of dihydrofolate reductase (verdict in words) ([2]; various concentrations of conjugate, Table 1) | ΔA340/20 Min (Antibody to Thyroxine [3]; 10 µl antibody to thyroxine 1:9 dilution) | ΔA340/20 Min (Antibody to Thyroxine [3]; 20 µl antibody to thyroxine 1:9 dilution) | ΔA340/20 Min (Antibody to Thyroxine [3]; 40 µl antibody to thyroxine 1:9 dilution) | ΔA340/20 Min (Antibody to Thyroxine [3]; 80 µl antibody to thyroxine 1:9 dilution) | ΔA340/20 Min (Antibody to Thyroxine [3]; 160 µl antibody to thyroxine 1:9 dilution) | ΔA340/20 Min (Antibody to Thyroxine [3]; no antibody, without conjugate and antibody 0.691) | ΔA340/20 Min (Antibody to Thyroxine [4]; 30 µl antibody to thyroxine 1:4 dil, no thyroxine) | ΔA340/20 Min (Antibody to Thyroxine [4]; no antibody, without conjugate 0.620)
CN(Cc1cnc2nc(N)nc(N)c2n1)c1ccc(C(=O)NC(CCC(=O)NC(Cc2cc(I)c(Oc3cc(I)c(O)c(I)c3)c(I)c2)C(=O)O)C(=O)O)cc1 (stereo not shown) [methotrexate-thyroxine conjugate, Methotrexate-thyroxine Conjugate] | 0.538 | 0.581 | 0.632 | 0.689 | 0.737 | 0.478 |  |  |  |  |  |  |  |  |  |  |  |  | 
CN(Cc1cnc2nc(N)nc(N)c2n1)c1ccc(C(=O)NC(CCC(=O)NCCCCNC(Cc2cc(I)c(Oc3cc(I)c(O)c(I)c3)c(I)c2)C(=O)O)C(=O)O)cc1 (stereo not shown) [Methotrexate-Aminobutyl-Thyroxine, Methotrexate-aminobutylthyroxine Conjugate] |  |  |  |  |  |  | 0.566 | 0.495 | 0.433 | 0.306 | effective inhibitor | 0.579 | 0.602 | 0.664 | 0.656 | 0.667 | 0.499 | 0.645 | 0.458
